Assay results from patent US7786152B2, “Compound” (priority 2002, dated 2010).

What was measured:
11 β-HSD type 2 = biological target: T1, 11 β-HSD type 2 (Rattus norvegicus, UniProt P50233); test: 11 β-HSD type 2 inhibition, rat kidney homogenate, conversion F to E (radiometric TLC); assay type: biochemical; conditions: read-out: % inhibition of 11β HSD2 @ 10 μM, typical sd ± 5%, means n=2
T1 construct: Both the kidneys and livers were homogenised on ice in PBS-sucrose buffer; tissue Harlan Olac (rats); host or cells: Wistar rat kidney homogenate supernatant
T1 sequence (P50233 1-400): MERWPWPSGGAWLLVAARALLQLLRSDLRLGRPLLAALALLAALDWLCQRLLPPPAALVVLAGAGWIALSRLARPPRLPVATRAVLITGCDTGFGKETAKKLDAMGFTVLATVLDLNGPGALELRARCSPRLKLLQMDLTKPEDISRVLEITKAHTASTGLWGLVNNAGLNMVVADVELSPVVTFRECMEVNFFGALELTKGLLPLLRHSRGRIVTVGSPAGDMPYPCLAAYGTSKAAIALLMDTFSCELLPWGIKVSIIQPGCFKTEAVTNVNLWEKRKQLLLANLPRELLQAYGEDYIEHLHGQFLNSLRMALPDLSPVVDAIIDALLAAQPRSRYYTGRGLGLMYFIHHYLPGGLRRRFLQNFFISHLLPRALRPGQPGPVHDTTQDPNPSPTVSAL
Protocol: (§1) Enzymes—Rat livers and rat kidneys were obtained from normal Wistar rats (Harlan Olac, Bicester, Oxon, UK). Both the kidneys and livers were homogenised on ice in PBS-sucrose buffer (1 g/10 ml) using an Ultra-Turrax. After the livers and kidneys were homogenised the homogenate was centrifuged for five minutes at 4000 rpm. The supernatant obtained was removed and stored in glass vials at −20° C. The amount of protein per μl of rat liver and kidney cytosol was determined using the Bradford method.
The same procedure was used for the 11 β-HSD type 2 assay, the conversion F to E, to determine the amount of rat kidney to be used and the incubation time. Except this time the substrate solution contained ^3H—F and unlabelled F and the recovery contained ^14C-E and unlabelled E and cortisone has a Rf value of 0.65 on the TLC-plate.
(§2) In these assays the influence of different inhibitors on the 11 β-HSD activity both in reductive (type 1) and oxidative (type 2) directions were assessed. In the reductive direction E is the substrate and F the product and visa versa in the case of oxidation. The method described here is for the oxidative direction.
The substrate solution contained about 50,000 cpm/ml ^3H—F in PBS-sucrose and 0.5 μM F. 1 ml of the substrate solution was added to each tube, the inhibitors were also added, at a 10 μM concentration, to each tube except to the “control” and “blank” tubes. 150 μL was added to all tubes except to the blanks, this was done to correct for the amount of ^3H—F spontaneously formed. The tubes were incubated for 60 minutes in a mechanically shaken water bath at 37° C. The amount of kidney liver homogenate and incubation time used resulted from the enzyme- and time-dependency assay. After incubation 50 μL of recovery was added to correct for the losses made in the next steps, containing 5000 cpm/50 μL of ^14C-E and 50 μg/50 μL of unlabelled E (to visualise the spot on the TLC-plate). The aqueous mixture was then extracted with 4 ml of ether (2×30 sec cycle, vortex mix). After freezing the aqueous phase, the ether (upper) layer was decanted into smaller tubes and evaporated at 45° C. until completely dry. The residue was then re-dissolved in 6 drops of ether and transferred to a TLC-plate. The TLC-plate was developed in chloroform:methanol (9:1 v/v) solvent system, the TLC-plate ran for about 90 minutes until the solvent front had moved about 18 cm. The position of the product E was visualised under UV-light and cut out from the TLC-plate and put into scintillation vials. Radioactivity was eluted over 5 minutes with 0.5 ml methanol. 0.5 ml of PBS-sucrose and 10 ml of Ecoscint were then added and vortex mixed before counting in the scintillation counter. Before counting the samples, two total activity vials were prepared. These contained 0.5 ml of the substrate solution, 50 μL of the recovery, 0.5 ml of methanol and 10 ml of Ecoscint. These two total activity vials were needed to determine the amount of ^14C-E and ^3H—F added in the beginning to make the calculations.
To look at the percentage of inhibition four different concentrations, 1, 5, 10 and 20 μM, were used. The method for both the rat liver, type 1 the reductive, and rat kidney, type 2 the oxidative, stay the same throughout the entire experiment.
In this experiment the amount of rat liver homogenate and rat kidney homogenate added to each tube and the incubation time was determined. […] After drawing the graphs the optimal amount of rat liver cytosol and rat kidney cytosol and both their incubation times were selected. One important rule when selecting both variables, to select an amount of rat liver and rat kidney and incubation time on a linear part of the graph. This is done to avoid fluctuations in enzyme activity. The amount of rat liver cytosol selected was 25 μL and 90 minutes of incubation time, the amount of rat kidney cytosol selected was 150 μL and 60 minutes of incubation time. […]

11 β-HSD type 1 = biological target: T2, 11 β-HSD type 1 (Rattus norvegicus, UniProt P16232); test: 11 β-HSD type 1 inhibition, rat liver homogenate, conversion E to F (radiometric TLC); assay type: biochemical; conditions: read-out: % inhibition of 11β HSD1 @ 10 μM, 10 μM, typical sd ± 5%, means n=2
T2 construct: Both the kidneys and livers were homogenised on ice in PBS-sucrose buffer; tissue Harlan Olac (rats); host or cells: Wistar rat liver homogenate supernatant
T2 sequence (P16232 whole entry): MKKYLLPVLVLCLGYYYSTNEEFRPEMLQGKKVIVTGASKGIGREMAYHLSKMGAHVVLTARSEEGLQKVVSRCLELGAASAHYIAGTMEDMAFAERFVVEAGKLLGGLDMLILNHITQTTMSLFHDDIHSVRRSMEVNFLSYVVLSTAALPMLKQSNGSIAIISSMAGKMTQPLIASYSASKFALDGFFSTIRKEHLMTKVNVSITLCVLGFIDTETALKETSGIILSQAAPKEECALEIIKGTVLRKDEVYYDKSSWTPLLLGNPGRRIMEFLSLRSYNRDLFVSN
Protocol: as §1
11 β-HSD type 1 is the enzyme responsible for the conversion E to F and this type of enzyme is present in rat liver. The substrate solution used in this assay contained 70,000 cpm/ml ^3H-E in PBS-sucrose and 0.5 μM of unlabelled E and co-factor NADPH (9 mg/10 ml of substrate solution). 1 ml of the substrate solution and the different amounts of rat liver homogenate was added to all tubes.
The amount of rat liver homogenate needed for an assay was determined by incubating the substrate solution with 25, 50, 100 and 150 μl for 30, 60, 90 and 120 minutes at 37° C. in a water bath with the tubes being mechanically shaken. After the incubation 50 μL of recovery solution was added, containing about 8,000 cpm/50 μL of ^14C—F and 50 μg/50 μL of unlabelled F for visualising the spot on the TLC-plate, to correct for the losses made in the next two steps. F was then extracted from the aqueous phase with 4 ml of ether (2×30 sec cycle, vortex mix). The aqueous phase was then frozen using dry-ice and the organic layer was decanted and poured into smaller tubes and evaporated. 6 drops of ether were then added to the small tubes to re-dissolve the residue which was transferred to an aluminium thin layer chromatography plate (TLC-plate). The TLC-plate was developed in a TLC tank under saturated conditions. The solvent system used was chloroform:methanol 9:1 (v/v). The F spots on the TLC-plate were visualised under UV-light and cut out from the TLC-plate (Rf=0.45). The spots from the TLC-plate were then put into scintillation vials and 0.5 ml of methanol was added to all vials to elute the radioactivity from the TLC-plate for 5 minutes. 10 ml of Ecoscint was added to the scintillation vials and they were put into the scintillation counter to count amount of product formed.
as §2
The substrate solution contained about 50,000 cpm/ml ^3H—F in PBS-sucrose and 0.5 μM F. 1 ml of the substrate solution was added to each tube, the inhibitors were also added, at a 10 μM concentration, to each tube except to the “control” and “blank” tubes. 150 μL was added to all tubes except to the blanks, this was done to correct for the amount of ^3H—F spontaneously formed. The tubes were incubated for 60 minutes in a mechanically shaken water bath at 37° C. The amount of kidney liver homogenate and incubation time used resulted from the enzyme- and time-dependency assay. After incubation 50 μL of recovery was added to correct for the losses made in the next steps, containing 5000 cpm/50 μL of ^14C-E and 50 μg/50 μL of unlabelled E (to visualise the spot on the TLC-plate). The aqueous mixture was then extracted with 4 ml of ether (2×30 sec cycle, vortex mix). After freezing the aqueous phase, the ether (upper) layer was decanted into smaller tubes and evaporated at 45° C. until completely dry. The residue was then re-dissolved in 6 drops of ether and transferred to a TLC-plate. The TLC-plate was developed in chloroform:methanol (9:1 v/v) solvent system, the TLC-plate ran for about 90 minutes until the solvent front had moved about 18 cm. The position of the product E was visualised under UV-light and cut out from the TLC-plate and put into scintillation vials. […]

Row | melting point [°C] | Compound | inhibition at 10 µM (11 β-HSD type 2) [%] | inhibition at 10 µM (11 β-HSD type 1) [%]
1 |  | Cc1nc2cc(N(S(=O)(=O)c3ccccc3C#N)S(=O)(=O)c3ccccc3C#N)ccc2s1 [compound 731] | 12 | 45
2 |  | Cc1c(Cl)cccc1S(=O)(=O)Nc1ccc2[nH]c(=O)sc2c1 [compound 753] | 2 | 8
3 |  | CC(=O)c1ccccc1S(=O)(=O)N(c1ccc2sc(C)nc2c1)S(=O)(=O)c1ccccc1C(C)=O [compound 730] | 9 | 32
4 |  | Cc1nc2cc(NS(=O)(=O)c3c(C)c(C)cc(C)c3C)ccc2s1 [compound 706] | 7 | 29
5 | 245 to 247 | Cc1c(Cl)cccc1S(=O)(=O)Nc1ccc2c(c1)nc(C)n2CCO |  | 
6 |  | CC(=O)Nc1ccc(S(=O)(=O)Nc2ccc3sc(C)nc3c2)cc1 [compound 711] | 6 | 37
7 |  | CCOC(=O)CSc1nc2ccc(NS(=O)(=O)c3cccc(Cl)c3C)cc2s1 [compound 752] | 1 | 5
8 |  | CCN(CC)C(=O)CSc1nc2ccc(NS(=O)(=O)c3cccc(Cl)c3C)cc2s1 [compound 755] | 8 | 21
9 |  | Cc1nc2cc(NS(=O)(=O)c3c(C)c(C)c4c(c3C)CCC(C)(C)O4)ccc2s1 [compound 713] | 3 | 26
10 |  | Cc1nc2cc(NS(=O)(=O)c3c(F)c(F)c(F)c(F)c3F)ccc2s1 [compound 712] | 3 | 24
11 | 254 to 256 | Cc1c(Cl)cccc1S(=O)(=O)Nc1ccc2c(c1)nc(C)n2-c1ccccc1 |  | 
12 | 213 to 214.5 | Cc1c(Cl)cccc1S(=O)(=O)Nc1ccc2nc(C)n(CCO)c2c1 |  | 
13 |  | COc1ccc(S(=O)(=O)Nc2ccc3sc(C)nc3c2)cc1OC [compound 707] | 11 | 21
14 |  | Cc1c(Cl)cccc1S(=O)(=O)Nc1ccc2ncsc2c1 [compound 750] | 10 | 4
15 |  | COCCSc1nc2ccc(NS(=O)(=O)c3cccc(Cl)c3C)cc2s1 [compound 754] | 6 | 20

Row | Compound | melting point [°C] | inhibition at 10 µM (11 β-HSD type 2) [%] | inhibition at 10 µM (11 β-HSD type 1) [%]
16 | Cc1c(Cl)cccc1S(=O)(=O)Nc1ccc2nc(C)n(C)c2c1 | 265 to 266 |  | 
